Source: patent US20240247080A1, “GLP1/GIP/NPY2 RECEPTOR TRIPLE AGONISTS” (Boehringer Ingelheim International GmbH, priority 2022, published 2024)
Like-named read-outs stand apart in the source and are kept apart here. Starred links: 1 amine or outer side, 2 acyl side, 3 side chain; linkers in the order of their positions; H or OH if unused. Non-standard residues stand in square brackets, D forms with d. Groups on a side chain read outwards from the residue. *: point of attachment. C18 diacid = O=C(O)CCCCCCCCCCCCCCCCC(=O)*; γGlu = O=C(O)[C@H](CCC(=O)[*:2])N[*:1]; AEEA = NCCOCCOCC(=O)O; Aib = CC(C)(N)C(=O)O

What was measured:
hGLP1R = target: T1, hGLP1R (Homo sapiens, UniProt P43220); assay: hGLP1R CreLuc reporter gene assay in 0.5% and 100% plasma; format: cell-based; conditions: CreLuc reporter gene assay
T1 construct: expressed in transfected cells; host or cells: HEK-293 cells carrying a CRE-luciferase reporter gene
T1 sequence (P43220 24-463): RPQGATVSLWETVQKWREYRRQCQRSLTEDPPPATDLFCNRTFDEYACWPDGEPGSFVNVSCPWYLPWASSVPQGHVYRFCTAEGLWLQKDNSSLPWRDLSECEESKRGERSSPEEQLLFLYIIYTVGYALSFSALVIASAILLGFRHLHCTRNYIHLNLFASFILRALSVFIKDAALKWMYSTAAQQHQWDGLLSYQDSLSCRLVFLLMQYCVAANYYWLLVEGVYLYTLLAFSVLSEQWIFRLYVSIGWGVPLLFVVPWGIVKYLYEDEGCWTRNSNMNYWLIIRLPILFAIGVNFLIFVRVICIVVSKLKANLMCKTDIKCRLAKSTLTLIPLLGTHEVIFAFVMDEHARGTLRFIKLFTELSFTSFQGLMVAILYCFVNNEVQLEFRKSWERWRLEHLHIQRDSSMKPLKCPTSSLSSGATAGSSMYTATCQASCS
Procedure, shortened: (§1)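 Agonist EC50s came from 8-concentration curves over four decades, fitted by non-linear variable-slope regression of CRE-driven luciferase luminescence. Cells were exposed 4 h at 37 °C, in buffer with 0.5% human plasma or in 100% plasma; GIPR was expressed in CHO cells, GLP-1R and NPY2R in HEK cells.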

hGIPR = target: T2, hGIPR (Homo sapiens, UniProt P48546); assay: hGIPR CreLuc reporter gene assay in 0.5% and 100% plasma; format: cell-based; conditions: CreLuc reporter gene assay
T2 construct: expressed in transfected cells; host or cells: CHO cells carrying a CRE-luciferase reporter gene
T2 sequence (P48546 22-466): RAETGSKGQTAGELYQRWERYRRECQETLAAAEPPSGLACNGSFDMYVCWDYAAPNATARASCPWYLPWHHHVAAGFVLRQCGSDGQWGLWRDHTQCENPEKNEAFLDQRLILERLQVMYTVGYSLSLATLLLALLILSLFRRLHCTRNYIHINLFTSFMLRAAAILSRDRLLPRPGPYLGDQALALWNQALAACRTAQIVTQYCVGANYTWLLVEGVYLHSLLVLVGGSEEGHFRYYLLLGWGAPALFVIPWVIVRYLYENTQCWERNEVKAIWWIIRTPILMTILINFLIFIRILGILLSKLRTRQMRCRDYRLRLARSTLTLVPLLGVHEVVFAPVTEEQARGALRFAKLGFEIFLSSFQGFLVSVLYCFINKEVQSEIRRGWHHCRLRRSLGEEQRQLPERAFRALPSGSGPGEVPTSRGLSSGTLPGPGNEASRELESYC
Procedure, shortened: as §1

[1] = Effect on acute food intake in normal NMRI mice; format: in vivo; conditions: 30 nmol/kg subcutaneously once, normalized to vehicle group, male NMRI mice
Method: Example 4: Effect on Acute Food Intake in Normal NMRI Mice
Male NMRI mice were obtained from Janvier (Janvier Labs, France) or from Charles River (Charles River Research Models & Services Germany GmbH) at the age of 3 weeks. The animals get a microchip (Datamars, Slim Microchip T-SL) for individual identification after delivery. They were housed with 4 mice per cage under a 12/12 dark-light cycle, light off at 3 p.m. Room temperature was controlled to 21° C. +/−1° C. and humidity 60%+/−20%. Mice had ad libitum access to regular rodent chow (KLIBA Nafag 3040 or Altromin 1324, Brogaarden, Denmark) and tap water.
Latest transfer into the HM2-System of MBRose, Denmark (real-time monitoring system of food- and water intake) of the animals 5 days before study start, to allow acclimatization to experimental conditions. As the animals were uniquely identified with the microchips, each individual animal was identified by its own microchip upon entry and exit from the food channel via antennae. Randomization of the mice for each study group (n=8; age earliest 6 weeks old) was based on food intake (middle of last three days 24 h-Intervall) and bodyweight directly before start of the study. A vehicle treated (50 mM phosphate buffer pH7.4 with 3.5% Mannitol) group was included in each experiment. To have the same nutrition standard for each animal the food access was locked eight hours before dark phase. One hour before night, the animals were once treated subcutaneously with the test peptide. Food intake was reported hourly for a period of 24 h.

hNPY2R = target: T3, hNPY2R (Homo sapiens, UniProt P49146); assay: hNPY2R CreLuc reporter gene assay in 0.5% and 100% plasma; format: cell-based; conditions: CreLuc reporter gene assay, 0.5% human plasma; read-out: hNPY2R 0.5% hP
T3 construct: expressed in transfected cells; host or cells: HEK-293 cells carrying a CRE-luciferase reporter gene
T3 sequence (P49146 1-381): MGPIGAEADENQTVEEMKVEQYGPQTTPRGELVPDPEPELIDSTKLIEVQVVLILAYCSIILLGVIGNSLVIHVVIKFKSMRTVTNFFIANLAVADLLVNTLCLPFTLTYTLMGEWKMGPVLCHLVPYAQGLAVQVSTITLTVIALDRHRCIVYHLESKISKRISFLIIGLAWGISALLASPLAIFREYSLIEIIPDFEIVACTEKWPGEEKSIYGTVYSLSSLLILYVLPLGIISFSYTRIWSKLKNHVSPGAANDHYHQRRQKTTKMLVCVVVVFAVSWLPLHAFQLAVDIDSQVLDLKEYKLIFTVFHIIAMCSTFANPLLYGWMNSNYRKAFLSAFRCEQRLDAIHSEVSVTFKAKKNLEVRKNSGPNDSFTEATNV
Procedure, shortened: as §1

[2] = Mouse PK after intravenous application; format: in vivo; conditions: mean residence time, intravenous 30-60 nmol/kg, male NMRI mice
Method: Pharmacokinetic parameters of the peptides were determined after intravenous application to NMRI mice. Male NMRI mice were obtained from Janvier Laboratories (France) weighing 30 to 40 g. Mice were housed in standard cages with a 12:12 hour light:dark cycle and standard food and water access ad libitum. Each test peptide was dissolved in 50 mM phosphate buffer (pH 7.4)/3.5% mannitol. Intravenous application of 30-60 nmol/kg was performed via the tail vein. Serial blood samples from conscious mice were collected from the saphenous vein in EDTA-containing vials at different time points up to 56 hours post-dosing. Subsequently, plasma was prepared by centrifugation for 5 min at approximately 5000 rpm and stored at −20° C. until quantification of the peptide plasma levels by liquid chromatography mass spectrometry (LC-MS). Individual plasma concentration—time profiles were analysed by a non-compartmental approach and the resulting pharmacokinetic parameters were calculated.

[3] = 0.5% human plasma, read-out: hGLP1R 0.5% hP
[4] = 100% human plasma, read-out: hGLP1R 100% hP
[5] = 0.5% human plasma, read-out: hGIPR 0.5% hP
[6] = 100% human plasma, read-out: hGIPR 100% hP

EC50 (hGLP1R; [3]) [nM]	EC50 (hGLP1R; [4]) [nM]	EC50 (hGIPR; [5]) [nM]	EC50 (hGIPR; [6]) [nM]	EC50 (hNPY2R) [nM]	MRT ([2]; plasma) [h]	MRT ([2]; in vivo) [h]	Compound	Acute Food Intake 24 h 30 nmol/kg [% CTL] [1] [% CTL]
0.35	16.7	0.37	1.82	20.7	–	–	H-Y[Aib]EGTFTSDYSI[Aib]LEKQAQ[Aib]EFVEWLIK([γGlu-γGlu-γGlu-γGlu-C18 diacid])GGPSEGASLRHYYNWLTRQRY-NH2 [Compound 276, Y-Aib-E-G-T-F-T-S-D-Y-S-I-Aib-L-E-K-Q-A-Q-Aib-E-F-V-E-W-L-I-K(1,3)-GGPSEGASLRHYYNWLTRQRY-NH2.C18DA-gGlu-gGlu-gGlu-gGlu(1,2)]	60
0.31	–	0.28	1.23	11.9	8	–	H-Y[Aib]EGTFTSDYSI[Aib]LEKQAQ[Aib]EFVEWLIK([AEEA-AEEA-γGlu-γGlu-γGlu-γGlu-C18 diacid])GGPSSGASLRHYYNWLTRQRY-NH2 [Compound 145, Y-Aib-E-G-T-F-T-S-D-Y-S-I-Aib-L-E-K-Q-A-Q-Aib-E-F-V-E-W-L-I-K(1,3)-GGPSSGASLRHYYNWLTRQRY-NH2.C18DA-gGlu-gGlu-gGlu-gGlu-OEG-OEG(1,2)]	43
–	–	–	–	–	–	11	CC[C@H](C)[C@H](NC(=O)[C@H](CC(C)C)NC(=O)[C@H](Cc1c[nH]c2ccccc12)NC(=O)[C@H](CCC(=O)O)NC(=O)[C@@H](NC(=O)[C@H](Cc1ccccc1)NC(=O)[C@H](C)NC(=O)C(C)(C)NC(=O)[C@H](CCC(N)=O)NC(=O)[C@H](C)NC(=O)[C@H](CCC(N)=O)NC(=O)[C@H](CCCCN)NC(=O)[C@H](CCC(=O)O)NC(=O)[C@H](CC(C)C)NC(=O)C(C)(C)NC(=O)[C@@H](NC(=O)[C@H](CO)NC(=O)[C@H](Cc1ccc(O)cc1)NC(=O)[C@H](CC(=O)O)NC(=O)[C@H](CO)NC(=O)[C@@H](NC(=O)[C@H](Cc1ccccc1)NC(=O)[C@@H](NC(=O)CNC(=O)[C@H](CCC(=O)O)NC(=O)C(C)(C)NC(=O)[C@@H](N)Cc1ccc(O)cc1)[C@@H](C)O)[C@@H](C)O)[C@@H](C)CC)C(C)C)C(=O)N[C@@H](CCCCNC(=O)[C@@H](N)CCCCNC(=O)[C@H](CCC(=O)O)NC(=O)CC[C@H](NC(=O)CC[C@H](NC(=O)CC[C@H](NC(=O)CC[C@H](NC(=O)CC[C@H](NC(=O)CCCCCCCCCCCCCCCCCCC(=O)O)C(=O)O)C(=O)O)C(=O)O)C(=O)O)C(=O)O)C(=O)NCC(=O)NCC(=O)N1CCC[C@H]1C(=O)N[C@@H](CO)C(=O)N[C@@H](CCC(=O)O)C(=O)NCC(=O)N[C@@H](C)C(=O)N[C@@H](CO)C(=O)N[C@@H](CC(C)C)C(=O)N[C@@H](CCCNC(=N)N)C(=O)N[C@@H](Cc1c[nH]cn1)C(=O)N[C@@H](Cc1ccc(O)cc1)C(=O)N[C@@H](Cc1ccc(O)cc1)C(=O)N[C@@H](CC(N)=O)C(=O)N[C@@H](Cc1c[nH]c2ccccc12)C(=O)N[C@@H](CC(C)C)C(=O)N[C@H](C(=O)N[C@@H](CCCNC(=N)N)C(=O)N[C@@H](CCC(N)=O)C(=O)N[C@@H](CCCNC(=N)N)C(=O)N[C@@H](Cc1ccc(O)cc1)C(N)=O)[C@@H](C)O [Compound 286, Y-Aib-E-G-T-F-T-S-D-Y-S-I-Aib-L-E-K-Q-A-Q-Aib-A-F-V-E-W-L-I-K(1,3)-GGPSEGASLRHYYNWLTRQRY-NH2.C20DA-gGlu-gGlu-gGlu-gGlu-gGlu-Glu-eLys(1,2)]	58
0.17	2.87	0.13	1.06	28.8	10.3	–	CC[C@H](C)[C@H](NC(=O)[C@H](CC(C)C)NC(=O)[C@H](Cc1c[nH]c2ccccc12)NC(=O)[C@H](CCC(=O)O)NC(=O)[C@@H](NC(=O)[C@H](Cc1ccccc1)NC(=O)[C@H](C)NC(=O)C(C)(C)NC(=O)[C@H](CCC(N)=O)NC(=O)[C@H](C)NC(=O)[C@H](CCC(N)=O)NC(=O)[C@H](CCCCN)NC(=O)[C@H](CCC(=O)O)NC(=O)[C@H](CC(C)C)NC(=O)C(C)(C)NC(=O)[C@@H](NC(=O)[C@H](CO)NC(=O)[C@H](Cc1ccc(O)cc1)NC(=O)[C@H](CC(=O)O)NC(=O)[C@H](CO)NC(=O)[C@@H](NC(=O)[C@H](Cc1ccccc1)NC(=O)[C@@H](NC(=O)CNC(=O)[C@H](CCC(=O)O)NC(=O)C(C)(C)NC(=O)[C@@H](N)Cc1ccc(O)cc1)[C@@H](C)O)[C@@H](C)O)[C@@H](C)CC)C(C)C)C(=O)N[C@@H](CCCCNC(=O)[C@@H](N)CCCCNC(=O)CC[C@H](NC(=O)CC[C@H](NC(=O)CC[C@H](NC(=O)CC[C@H](NC(=O)CC[C@H](NC(=O)CC[C@H](NC(=O)CCCCCCCCCCCCCCCCCCC(=O)O)C(=O)O)C(=O)O)C(=O)O)C(=O)O)C(=O)O)C(=O)O)C(=O)NCC(=O)NCC(=O)N1CCC[C@H]1C(=O)N[C@@H](CO)C(=O)N[C@@H](CO)C(=O)NCC(=O)N[C@@H](C)C(=O)N[C@@H](CO)C(=O)N[C@@H](CC(C)C)C(=O)N[C@@H](CCCNC(=N)N)C(=O)N[C@@H](Cc1c[nH]cn1)C(=O)N[C@@H](Cc1ccc(O)cc1)C(=O)N[C@@H](Cc1ccc(O)cc1)C(=O)N[C@@H](CC(N)=O)C(=O)N[C@@H](Cc1c[nH]c2ccccc12)C(=O)N[C@@H](CC(C)C)C(=O)N[C@H](C(=O)N[C@@H](CCCNC(=N)N)C(=O)N[C@@H](CCC(N)=O)C(=O)N(C)[C@@H](CCCNC(=N)N)C(=O)N[C@@H](Cc1ccc(O)cc1)C(N)=O)[C@@H](C)O [Compound 83, Y-Aib-E-G-T-F-T-S-D-Y-S-I-Aib-L-E-K-Q-A-Q-Aib-A-F-V-E-W-L-I-K(1,3)-G-G-P-S-S-G-A-S-L-R-H-Y-Y-N-W-L-T-R-Q-NMeR-Y-NH2.C20DA-gGlu-gGlu-gGlu-gGlu-gGlu-gGlu-eLys(1,2)]	–
